Results: ChEMBL document CHEMBL5370537, “Aporphines: A privileged scaffold in CNS drug discovery” (Eur J Med Chem, 2023)

How the values were obtained:
[1] = target: 5-hydroxytryptamine receptor 7 (Rattus norvegicus, UniProt P32305); assay: Displacement of [3H]5-HT from rat 5-HT7 assessed as inhibition constant
[2] = target: T1, 5-hydroxytryptamine receptor 1A (Homo sapiens, UniProt P08908); assay: Displacement of [3H]8-OH-DPAT from human 5-HT1A assessed as inhibition constant
T1 sequence (P08908 whole entry): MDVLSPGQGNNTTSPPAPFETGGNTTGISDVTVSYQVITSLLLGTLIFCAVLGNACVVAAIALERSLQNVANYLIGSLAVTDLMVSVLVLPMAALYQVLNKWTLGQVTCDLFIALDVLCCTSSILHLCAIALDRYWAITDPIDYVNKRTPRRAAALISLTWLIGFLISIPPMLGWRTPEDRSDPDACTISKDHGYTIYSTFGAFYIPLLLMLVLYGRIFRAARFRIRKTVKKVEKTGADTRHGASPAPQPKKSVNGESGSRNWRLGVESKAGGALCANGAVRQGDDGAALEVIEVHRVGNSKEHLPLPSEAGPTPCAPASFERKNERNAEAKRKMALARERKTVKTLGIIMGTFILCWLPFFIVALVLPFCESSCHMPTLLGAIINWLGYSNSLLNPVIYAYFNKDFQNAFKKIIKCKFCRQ

[3] = Inhibition of neuronal excitability in mouse Primary neocortical neuron assessed as reduction in SCO amplitude measured after 45 mins by FLIPR assay; format: functional, cell-based; conditions: 0.75 h
[4] = Inhibition of neuronal excitability in mouse Primary neocortical neuron assessed as reduction in SCO frequency measured after 45 mins by FLIPR assay; format: functional, cell-based; conditions: 0.75 h

Chain of 5-hydroxytryptamine receptor 7 (P32305 whole entry): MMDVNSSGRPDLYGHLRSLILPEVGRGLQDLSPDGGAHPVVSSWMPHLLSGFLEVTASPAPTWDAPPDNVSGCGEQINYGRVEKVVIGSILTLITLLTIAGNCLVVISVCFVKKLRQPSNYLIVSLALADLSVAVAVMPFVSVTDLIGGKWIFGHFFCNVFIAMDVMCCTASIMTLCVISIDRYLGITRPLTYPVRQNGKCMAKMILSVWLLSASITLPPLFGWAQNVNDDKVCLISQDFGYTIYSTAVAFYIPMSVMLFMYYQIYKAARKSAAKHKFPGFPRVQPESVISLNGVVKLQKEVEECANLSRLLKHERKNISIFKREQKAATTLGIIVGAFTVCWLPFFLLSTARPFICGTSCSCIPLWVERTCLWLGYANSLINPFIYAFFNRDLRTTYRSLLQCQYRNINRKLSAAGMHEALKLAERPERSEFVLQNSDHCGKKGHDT

CN1CCc2ccc3c4c2[C@H]1Cc1cccc(c1-4)[C@]3(C)O
Ki [1]: 0.0069 µM
Ki [2]: 0.0615 µM

COc1ccc2c(c1O)-c1c3c(cc4c1[C@H](C2)N(C)CC4)OCO3 [(S)-BULBOCAPNINE]
IC50 [3]: 12.9 µM
IC50 [4]: 11.6 µM
